The target of the assay is T1, FimH proteins (Escherichia coli, UniProt Q1R2J4).
T1 construct: endogenous in cells; host or cells: UPEC strain UTI89 (whole bacteria)
The assay can be described thus: hemagglutination inhibition (HAI) assay: UPEC UTI89 with guinea pig red blood cells. Particulars: read-out: HAI EC90 (minimum concentration for inhibiting hemagglutination). It counts as cell-based, uropathogenic Escherichia coli (UPEC) UTI89. The procedure: In the present example, the mannose derivatives A1 to A107 that were prepared in Examples 1 to 12 were analyzed in hemagglutination inhibition (HAI) assays to determine inhibitory effects of the compounds on the function/activity of FimH proteins.
1. Preparation of a guinea pig red blood cell solution: an adult guinea pig was anesthetized with ethyl ether, blood was sampled from the heart, placed in an EDTA blood collection tube, and centrifuged at 2,000 rpm for 5 min, serum was removed, the sample was transferred in a centrifuge tube (15 mL), sterilized PBS was added, the sample was centrifuged at 1,500 rpm for 10 min, a supernatant was removed, the sample was transferred in a centrifuge tube (50 mL), PBS was added, the sample was centrifuged at 1,500 rpm for 10 min and repeatedly washed twice, and red blood cells were slightly aspirated into a new centrifuge tube (50 mL) to obtain a 5% guinea pig red blood cell solution.
2. Preparation of a bacteria solution: a UPEC cell line UTI89 was inoculated on a medium plate and cultured in an incubator at 37° C. overnight. Single colonies were picked and inoculated in an LB medium in a sterilized conical flask, and cultured at 37° C. and 170 r/min overnight. When an OD value at 540 nm was about 0.8 on a microplate reader, the bacterial concentration was about 10^8-10^9 cfu/mL, the bacteria solution was centrifuged at 2,000 rpm for 10 min, a supernatant was removed, and 1 mL of bacteria solution was prepared into 0.1 mL of PBS bacteria solution. […] The bacteria and the medium were uniformly mixed by shaking, and reacted in an incubator at 25° C. for about 20-40 min. When the plate was read, the wells in which complete agglutination occurred were used as 4HAU for the hemagglutination titer of the bacteria. For example, if the endpoint titer of hemagglutination is 1:256, the dilution multiple of the 4HAU antigen is 1:64 (256 divided by 4). Bacteria solutions at corresponding concentrations were prepared according to the experimental results.
3. Activity assay: a compound to be tested or a standard product was placed in a 96-well microtest plate, 50 μL of drug at an initial concentration of 200 μM was placed in the first well, and from the second well, 25 μL of PBS was added to each well to dilute the drug in proportion. The drug and the medium in the first well were mixed, 25 μL of mixed drug solution was placed in the second well, the drug solution was diluted in sequence to the last well, and 25 μL of drug solution was removed. 25 μL of bacteria solution was placed in each well of the culture plate containing the diluted drug, and cultured at 37° C. for 40 min. 25 μL of 5% guinea pig red blood cell suspension was placed in each well, and slightly uniformly mixed with the drug, and the plate was placed at 4° C. for about 1 h. When results were determined, the plate was tilted 60°, and whether the red blood cells flowed like teardrops was observed.
Mannosyl proteins are expressed on the surface of red blood cells in a guinea pig, which can bind to FimH proteins of UTI89 to cause hemagglutination. It can be observed with the naked eyes that the red blood cells form film-like agglutination at the bottom of the well, and loose red dots can be seen in the center. The FimH protein inhibitor competitively binds to FimH proteins to inhibit hemagglutination. It can be observed with the naked eyes that all the red blood cells sink and concentrate at the bottom of the well to form dense dots. The minimum concentration for inhibiting hemagglutination is expressed as an EC90 value of a compound. The final concentration of the compound in the first well is 66700 nM, the concentration in the second well is half that in the first well, the concentration in the third well is half that in the second well, and so on. […] A low EC90 value indicates high activity of a compound.

Some results are limits rather than exact numbers.

As to `OC[C@H]1O[C@H](C#Cc2cnn(-c3ccc(F)cc3)c2)[C@](O)(C#CC2CC2)[C@@H](O)[C@@H]1O` [Compound A93], the EC90 was 2 nM. With `Cc1ccc(-n2cc(C#C[C@H]3O[C@H](CO)[C@@H](O)[C@H](O)[C@@]3(O)C#CC3CC3)cn2)cc1` [Compound A94] the figure was below 0.1 nM; with `OC[C@H]1O[C@H](C#Cc2cnn(-c3ccc(C(F)(F)F)cc3)c2)[C@](O)(C#CC2CC2)[C@@H](O)[C@@H]1O` [Compound A95], 4 nM. Take `N#Cc1ccc(-n2cc(C#C[C@H]3O[C@H](CO)[C@@H](O)[C@H](O)[C@@]3(O)C#CC3CC3)cn2)cc1` [Compound A96]: the EC90 amounted to 4 nM.

In the case of `COc1ccc(-n2cc(C#C[C@H]3O[C@H](CO)[C@@H](O)[C@H](O)[C@@]3(O)C#CC3CC3)cn2)cc1` [Compound A97], the EC90 is below 0.1 nM. With `COCCOc1ccc(-n2cc(C#C[C@H]3O[C@H](CO)[C@@H](O)[C@H](O)[C@@]3(O)C#CC3CC3)cn2)cc1` [Compound A98] the figure was below 0.1 nM. With `OC[C@H]1O[C@H](C#Cc2cnn(-c3ccc(O[C@@H]4CCOC4)cc3)c2)[C@](O)(C#CC2CC2)[C@@H](O)[C@@H]1O` [Compound A99] the figure was below 0.1 nM. On to `OC[C@H]1O[C@H](C#Cc2cnn(-c3ccc(O[C@H]4CCOC4)cc3)c2)[C@](O)(C#CC2CC2)[C@@H](O)[C@@H]1O` [Compound A100], for which the EC90 was below 0.1 nM. For the compound `OC[C@H]1O[C@H](C#Cc2cnn(-c3cccc(F)c3)c2)[C@](O)(C#Cc2ccccc2)[C@@H](O)[C@@H]1O` [Compound A101], the EC90 came out at 0.25 nM. `COCCOc1ccc(-n2cc(C#C[C@H]3O[C@H](CO)[C@@H](O)[C@H](O)[C@@]3(O)C#Cc3ccccc3)cn2)cc1` [Compound A102]: the EC90 is below 0.1 nM. As for `OC[C@H]1O[C@H](C#Cc2cnn(-c3ccc(O[C@@H]4CCOC4)cc3)c2)[C@](O)(C#Cc2ccccc2)[C@@H](O)[C@@H]1O` [Compound A103], the figure is below 0.1 nM; as for `OC[C@H]1O[C@H](C#Cc2cnn(-c3ccc(O[C@H]4CCOC4)cc3)c2)[C@](O)(C#Cc2ccccc2)[C@@H](O)[C@@H]1O` [Compound A104], below 0.1 nM. With `OC[C@H]1O[C@H](C#Cc2cnn(-c3ccc(C4CC4)cc3)c2)[C@](O)(C#CC2CC2)[C@@H](O)[C@@H]1O` [Compound A105] the figure was 0.13 nM; with `CCOc1ccc(-n2cc(C#C[C@H]3O[C@H](CO)[C@@H](O)[C@H](O)[C@@]3(O)C#CC3CC3)cn2)cc1` [Compound A106], below 0.1 nM; with `CC(C)Oc1ccc(-n2cc(C#C[C@H]3O[C@H](CO)[C@@H](O)[C@H](O)[C@@]3(O)C#CC3CC3)cn2)cc1` [Compound A107], below 0.1 nM.
